“Also recorded” adds a separate entry of the source.
Columns and labels:
Choriocarcinoma (JAR) = test: MIC on cell proliferation, 7 days in culture; assay type: cell-based, human
Description: (§1) The ability of arginine butyrate to induce differentiation has been evaluated and is measured by inhibition of growth, in some of the neoplastic cell types previously reported to be sensitive to (sodium) butyric acid, and found arginine butyrate to be as potent as butyric acid. We have also extended that work to additional cell types and found Arginine Butyrate to induce differentiation in these new cell types. Table 1 lists the cell types tested and the minimum inhibitory concentration (MIC) of sodium butyrate (NaB) and arginine butyrate (ArgB) on these cell lines. The MIC is the lowest dose that prevents all growth over the 7 days that the cells are maintained in culture, that is the minimum dose that prevents an increase in cell number. […] The […] of ArgB and NaB were equivalent on all cell lines tested.

[1] = tested on: Colonic Adenocarcinoma (HT29); test: MIC on cell proliferation, 7 days in culture; assay type: cell-based, human
Description: as §1

Erythroleukemia (K562) = test: MIC on cell proliferation, 7 days in culture; assay type: cell-based, human
Description: as §1

Gastric Carcinoma (AGS) = test: MIC on cell proliferation, 7 days in culture; assay type: cell-based, human
Description: as §1

Glioblastoma Multiforme = test: MIC on cell proliferation, 7 days in culture; assay type: cell-based, human
Description: as §1

Myeloid Leukemia (HL60) = test: MIC on cell proliferation, 7 days in culture; assay type: cell-based, human
Description: as §1

Osteosarcoma (HOS) = test: MIC on cell proliferation, 7 days in culture; assay type: cell-based, human
Description: as §1

Rhabdomyosarcoma = test: MIC on cell proliferation, 7 days in culture; assay type: cell-based, human
Description: as §1

[2] = tested on: HLA antigens in K562 cells; conditions: one hour of exposure to 1 mM
Description: HLA Induction: Arginine butyrate was tested for its ability to induce expression of HLA antigens in K562 cells, a human erythroleukemia cell line.

[3] = tested on: EBV-TK mRNA in P3RH1 (EBV B-cell producer line); test: EBV-TK mRNA induction in lymphoma cell lines; assay type: cell-based, human; conditions: 12 hours, 3 mM
Description: (§2) Because of arginine butyrate's ability to induce various genes, its ability to induce EBV-TK mRNA in human lymphoma cell lines was evaluated. FIG. 7 provides bar graphs of the basal levels of TK and the levels following 12 hours of incubation with 3 mM arginine butyrate in 3 lymphoma cell lines: X50-7 a latent large cell lymphoma (B cell); P3RH1 an EBV B-cell producer line derived from Burkitt's lymphoma; and Raji a non-producer line derived from a Burkitt's lymphoma. EBV-TK levels were not increased in the EBV non-producer cell line, Raji, which has a high basal level of TK, but were increased approximately 4 fold in an EBV producer cell line and 10 fold in a non-producer cell line.

[4] = tested on: EBV-TK mRNA in Raji (non-producer line); test: EBV-TK mRNA induction in lymphoma cell lines; assay type: cell-based, human; conditions: high basal level of TK, 12 hours, 3 mM
Description: as §2

[5] = tested on: EBV-TK mRNA in X50-7 (latent large cell lymphoma); test: EBV-TK mRNA induction in lymphoma cell lines; assay type: cell-based, human; conditions: non-producer (latent) line X50-7; 12 hours, 3 mM
Description: as §2

[6] = Clinical toxicity in patients; assay type: in vivo, human; conditions: for grade 3 or 4 toxicities: patients treated up to 2,000 mg/kg/day
Description: Clinical experience with butyrates have been performed in children with acute myelogenous leukemia in Israel, and in children with neuroblastoma (K. Prasad, Life Sci. 27:1351-58, 1980). […] Eleven pediatric patients and twelve adults with β-hemoglobinopathies were treated with IV arginine butyrate at a starting dose of 500 mg/kg/day for 2-7 weeks. If no side effects were noted, the rate was increased by 250 mg/kg/day to a final rate of 1500 mg/kg/day in 4 patients, and 2000 mg/kg/day in 2 patients. […] This rise in BUN returned to normal within 12 hours of discontinuation of drug, and is thought to be secondary to effect of arginine upon ureagenesis. […] Peak serum levels of butyrate ranged between 0.04-0.05 mM, and butyrate was not detectable 15 minutes after infusion was discontinued. Plasma arginine levels were also rapidly cleared, with a T1/2 of 15 minutes, and baseline arginine levels were reached within 12 hours after discontinuation of infusion.
Three patients with refractory neoplasms (breast, melanoma, adenocarcinoma, of unknown primary) have been enrolled and completed 1-2 cycles of arginine butyrate as a dose of 500 mg/kg/day over 6-8 hours for 10 days.
Three patients (with breast cancer, bowel cancer or Hodgkins disease) have completed two cycles of arginine butyrate at a dose of 750 mg/kg/day for 10 days. […] Otherwise, there was no other objective measures of organ progressed after treatment was topped. […] There was a further resolution of the disease during the second cycle. Disease progression was noted one month after second cycle was completed. At 1000 mg/kg/day, 3 patients have been enrolled on study.
An inter-group dose-escalation study is being conducted in patients with refractory malignancies. There are 3 patients per group with the dose levels starting at 500 mg/kg/day, and increasing by 250 mg/kg/day per group, if toxicity permits. Doses are given by 8 hour IV infusion, daily, for 5 days times 2 weeks, with weekends off, for a total of 10 days of treatment per cycle.

[7] = tested on: 3 other neuroblastoma cell lines; test: Growth inhibition over 6 days (RFU); assay type: cell-based, human; conditions: 0.5 and 1.0 mM, FIG. 1a
[8] = tested on: human malignant cell lines from breast, colon, lung, prostate, ovarian and lymphoid sources; test: Cytotoxicity as single agent, cell death at 72 hours; assay type: cell-based; conditions: all concentrations tested
[9] = tested on: EBV+ and EBV− cell lines (X50-7, Akata, HPB-ALL, Nalm-6); test: Growth of EBV+ and EBV− cell lines; assay type: cell-based, human
Excerpt: In some experiments sodium was used instead of arginine to neutralize butyric acid. […] Cell lines used were X50-7, a latent EBV+ B-cell lymphoma; Akata, a producer EBV+ Burkitt's lymphoma; HPB-ALL, a T-cell line; and Nalm-6, an EBV− B-cell line. Growth curves for X50-7 cells in different concentrations of sodium butyrate are shown in FIG. 8b and the growth curves for HPB-ALL cells in different concentrations of sodium butyrate are shown in FIG. 8c.

In the case of arginine butyrate, the MIC (Choriocarcinoma (JAR)) is reported as 156 µM, the MIC [1] is reported as 2,000 μM and the MIC (Erythroleukemia (K562)) is reported as 1,250 μM. The MIC (Gastric Carcinoma (AGS)) was 2,000 μM, the MIC (Glioblastoma Multiforme) was 1,000 μM and the MIC (Myeloid Leukemia (HL60)) was 78 µM. The MIC (Osteosarcoma (HOS)) was 312 µM, the MIC (Rhabdomyosarcoma) was 156 µM and the HLA expression increase [2] was “more than 20 fold”. For the same substance, the EBV-TK level increase [3] was “approximately 4 fold”, the EBV-TK levels [4] was “not increased” and the EBV-TK level increase [5] was ~10 fold. For the same substance, the “patients with grade 1 nausea/vomiting” value ([6]; 500 mg/kg/day, three patients) was “Two of the three patients”, the “patients with grade I nausea/vomiting” value ([6]; 750 mg/kg/day for 10 days, three patients) was “One of the three patients; also recorded: One, of the three patients” and the “serum BUN” value ([6]; 750 mg/kg/day, one patient) was “transient elevation of serum BUN”. The “time to resolution of BUN elevation and proteinuria after discontinuation” value ([6]; 750 mg/kg/day, one patient) was ≤ 5 days, the toxic side effects ([6]; adults, IV infusion of similar doses) was “no toxic side effects” and the “grade 3 or 4 toxicities” value ([6]; listed as Arginine butyrate) was “no grade 3 and no grade 4 toxicities reported”. For the same substance, the “grade 3 or 4 toxicities” value ([6]; listed as arginine butyrate) was “no grade 3 or 4 toxicities”, the organ specific toxicity ([6]; recorded by principal investigators) was “No organ specific toxicity was recorded” and the “objective toxicities (hepatic, renal, cardiac, pulmonary, hematopoietic)” value ([6]; refractory neoplasms, 500 mg/kg/day over 6-8 hours for 10 days) was “no objective toxicities noted”. The untoward side effects ([6]; three cancer patients, emergency basis, up to 2,000 mg/kg/day, 10 days) was “no untoward side effects noted”, the “side effect: anorexia” value ([6]; β-hemoglobinopathies, IV 500-2000 mg/kg/day) was “Transient anorexia developed in one patient” and the “side effect: serum aminotransferase” value ([6]; β-hemoglobinopathies, IV 500-2000 mg/kg/day, 2-7 weeks) was “transient, slight rise in serum aminotransferase”. For the same substance, the “time for rise in BUN to return to normal after discontinuation” value ([6]; β-hemoglobinopathies, continuous infusion over 2 weeks) was ≤ 12 h, the growth inhibition [7] was “dose response growth inhibition” and the “concentrations at which cell death at 72 hours was seen” value [8] was 0.1 to 5.0 mM. For the same substance, the “effect on cell growth” value ([9]; 1 mM) was “cytostatic to some cell lines and permitted normal cell growth in others” and the “effect on cell growth” value ([9]; 2 mM and 3 mM) was “cytocidal to most EBV+ and EBV− cell lines”.
